System: Lactating Holstein Dairy Cows
Experiment: Feeding evaluation: lactation responses to N-Benzylidene-L-Lysine
Format: in vivo
Text: Evaluation of Feeding N-Benzylidene-L-Lysine Using Lactating Holstein Dairy Cows
All cows received the same base diet. Cows were assigned to one of two treatments: (1) control, (2) control+N-Benzylidene-L-Lysine (TrTA). N-Benzylidene-L-Lysine was supplemented at a rate to supply 40 g of Lys when cows consumed 53.0 lb dry matter/d. The control diet was formulated to be deficient of lysine. “P” refers to the probability value (p-value).

[1] = control diet deficient of lysine plus 40 g Lys from N-Benzylidene-L-Lysine, 14 days

NCCCC[C@H](N=Cc1ccccc1)C(=O)O [Trt A, N-Benzylidene-L-Lysine]
ECM [1]: 81.3 lbs/d | FCM [1]: 81.2 lbs/d | Milk [1]: 77.3 lbs/d | ECM/Feed (control diet plus 40 g Lys from N-Benzylidene-L-Lysine, 14 days): 1.53 | Fat, % (milk fat content, control diet plus 40 g Lys from N-Benzylidene-L-Lysine, 14 days): 3.81% | Fat, lbs/d (milk fat yield, control diet plus 40 g Lys from N-Benzylidene-L-Lysine, 14 days): 2.94 lbs/d | Protein, % (milk protein content, control diet plus 40 g Lys from N-Benzylidene-L-Lysine, 14 days): 3.14% | Protein, lbs/d (milk protein yield, control diet plus 40 g Lys from N-Benzylidene-L-Lysine, 14 days): 2.41 lbs/d | Lactation response versus control (conclusion in words) (versus lysine-deficient control diet, from Table 1 data): produced more milk, more protein and more fat
